{
  "source": "patent US20260034079A1",
  "about": "“PHARMACEUTICAL COMPOSITION CONTAINING HYDROXYUREA FOR USE IN THE TREATMENT OF SEVERE CHRONIC ANEMIA” (THERAVIA, priority 2019, published 2026)",
  "system": "sickle cell patients with severe chronic anaemia",
  "experiment": "Clinical trial: hematological parameters during treatment with Siklos in HU-naive sickle cell patients with severe chronic anaemia",
  "format": "in vivo, human",
  "protocol": "This study was conducted with a pharmaceutical composition identical to that of Siklos.\nThe dose of hydroxycarbamide is comprised from 5 to 30 mg/kg/day.\nThe results of the evaluation of the hematological parameters of the patients are recorded in the table below.",
  "key": {"[1]": {"conditions": "12 months after the start of the treatment, p<0.001"}},
  "data": [
    {"smiles": "NC(=O)NO", "note": "[hydroxycarbamide, hydroxyurea]", "values": [
      {"measurement": "Haemoglobin, value after initiation of the treatment", "setting": "12 months after initiation of Siklos (between 10 and 14 months), 41 patients, base value 7.16 ± 1.06, 5 to 30 mg/kg/day", "value": "7.89 ± 1.11", "unit": "g/dL"},
      {"measurement": "Variation of the haemoglobin, change with respect to the base value", "setting": "12 months after initiation of Siklos (between 10 and 14 months), 41 patients, p 0.001", "value": "0.73 ± 1.30", "unit": "g/dL"},
      {"measurement": "Mean blood volume, change", "setting": "[1]", "value": "+10.82±11.42"},
      {"measurement": "Number of reticulocytes, change", "setting": "[1]", "value": "−91.5±115.6"},
      {"measurement": "Absolute number of neutrophil", "setting": "after the start of the treatment, indicating adequate compliance", "value": "decreased"},
      {"measurement": "Evolution of the fetal haemoglobin, change with respect to the base value", "setting": "at least 6 months after initiation of Siklos (between 5 and 14 months), 23 patients, p <0.001", "value": "6.37±6.38", "unit": "%"},
      {"measurement": "Variation of the haemoglobin, change with respect to the base value", "setting": "at least 6 months after initiation of Siklos (between 5 and 14 months), 55 patients, p <0.001", "value": "0.65 ± 1.24", "unit": "g/dL"}
    ]}
  ]
}
